The values below are quoted from earlier work in US20060052354A1, “Methods for treating migraine” (Corcept Therapeutics, Inc., priority 2002, published 2006).

Series [1] has as its target T1, Mineralocorticoid receptors (MRs) (Homo sapiens, UniProt P08235).
T1 sequence (P08235 1-984): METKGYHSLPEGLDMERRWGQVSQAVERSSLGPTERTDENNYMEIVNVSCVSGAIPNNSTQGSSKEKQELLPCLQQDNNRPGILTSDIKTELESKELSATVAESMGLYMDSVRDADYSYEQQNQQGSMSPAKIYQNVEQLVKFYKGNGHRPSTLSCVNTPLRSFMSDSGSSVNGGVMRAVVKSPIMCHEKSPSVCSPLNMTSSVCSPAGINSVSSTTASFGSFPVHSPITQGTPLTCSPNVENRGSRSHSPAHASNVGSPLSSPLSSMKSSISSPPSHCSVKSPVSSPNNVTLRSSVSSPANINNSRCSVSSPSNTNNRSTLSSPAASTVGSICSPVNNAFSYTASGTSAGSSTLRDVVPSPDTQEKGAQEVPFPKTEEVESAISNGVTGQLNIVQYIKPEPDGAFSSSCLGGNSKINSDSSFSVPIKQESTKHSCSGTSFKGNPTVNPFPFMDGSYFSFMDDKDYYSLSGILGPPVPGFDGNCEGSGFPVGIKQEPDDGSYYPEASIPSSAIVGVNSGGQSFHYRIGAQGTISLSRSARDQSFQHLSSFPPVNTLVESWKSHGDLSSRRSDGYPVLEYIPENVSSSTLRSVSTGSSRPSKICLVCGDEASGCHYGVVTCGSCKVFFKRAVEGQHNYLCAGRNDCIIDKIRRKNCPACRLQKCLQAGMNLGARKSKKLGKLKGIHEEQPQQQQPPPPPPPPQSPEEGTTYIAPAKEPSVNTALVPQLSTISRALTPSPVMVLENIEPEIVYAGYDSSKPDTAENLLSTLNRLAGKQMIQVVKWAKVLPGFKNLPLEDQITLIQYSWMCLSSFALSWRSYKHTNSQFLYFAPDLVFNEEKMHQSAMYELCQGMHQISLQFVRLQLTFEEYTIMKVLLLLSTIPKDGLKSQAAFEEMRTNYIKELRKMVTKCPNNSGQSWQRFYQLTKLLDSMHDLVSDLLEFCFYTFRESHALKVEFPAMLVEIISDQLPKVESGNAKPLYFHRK
As to conditions: MR versus GR.

Series [2] concerns the target T2, glucocorticoid (GR) receptors (Homo sapiens, UniProt P04150).
T2 sequence (P04150 1-777): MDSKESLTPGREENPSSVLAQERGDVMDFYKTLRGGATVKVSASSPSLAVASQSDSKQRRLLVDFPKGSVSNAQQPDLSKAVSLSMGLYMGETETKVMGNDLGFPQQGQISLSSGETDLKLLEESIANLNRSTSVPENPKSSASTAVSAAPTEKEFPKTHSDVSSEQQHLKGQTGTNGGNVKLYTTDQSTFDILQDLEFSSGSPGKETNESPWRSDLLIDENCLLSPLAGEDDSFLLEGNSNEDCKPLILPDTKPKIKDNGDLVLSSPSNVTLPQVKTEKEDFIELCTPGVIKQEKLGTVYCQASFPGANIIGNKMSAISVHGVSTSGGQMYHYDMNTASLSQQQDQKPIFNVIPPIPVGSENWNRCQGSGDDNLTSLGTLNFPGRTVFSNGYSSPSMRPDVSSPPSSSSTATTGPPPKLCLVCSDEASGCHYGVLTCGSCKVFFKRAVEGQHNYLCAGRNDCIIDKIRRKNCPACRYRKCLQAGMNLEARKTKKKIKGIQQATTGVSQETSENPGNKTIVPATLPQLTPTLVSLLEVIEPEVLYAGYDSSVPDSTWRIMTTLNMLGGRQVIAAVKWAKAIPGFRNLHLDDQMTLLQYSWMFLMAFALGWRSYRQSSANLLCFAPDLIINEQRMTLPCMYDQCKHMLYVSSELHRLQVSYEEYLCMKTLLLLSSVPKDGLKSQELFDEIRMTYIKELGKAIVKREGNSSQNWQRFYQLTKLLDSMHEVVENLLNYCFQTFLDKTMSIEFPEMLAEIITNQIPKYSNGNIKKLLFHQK

For series [3] the following is noted: in one study (Kawai).
The target of the next series is T3, progesterone receptor (Homo sapiens, UniProt P06401).
T3 sequence (P06401 1-933): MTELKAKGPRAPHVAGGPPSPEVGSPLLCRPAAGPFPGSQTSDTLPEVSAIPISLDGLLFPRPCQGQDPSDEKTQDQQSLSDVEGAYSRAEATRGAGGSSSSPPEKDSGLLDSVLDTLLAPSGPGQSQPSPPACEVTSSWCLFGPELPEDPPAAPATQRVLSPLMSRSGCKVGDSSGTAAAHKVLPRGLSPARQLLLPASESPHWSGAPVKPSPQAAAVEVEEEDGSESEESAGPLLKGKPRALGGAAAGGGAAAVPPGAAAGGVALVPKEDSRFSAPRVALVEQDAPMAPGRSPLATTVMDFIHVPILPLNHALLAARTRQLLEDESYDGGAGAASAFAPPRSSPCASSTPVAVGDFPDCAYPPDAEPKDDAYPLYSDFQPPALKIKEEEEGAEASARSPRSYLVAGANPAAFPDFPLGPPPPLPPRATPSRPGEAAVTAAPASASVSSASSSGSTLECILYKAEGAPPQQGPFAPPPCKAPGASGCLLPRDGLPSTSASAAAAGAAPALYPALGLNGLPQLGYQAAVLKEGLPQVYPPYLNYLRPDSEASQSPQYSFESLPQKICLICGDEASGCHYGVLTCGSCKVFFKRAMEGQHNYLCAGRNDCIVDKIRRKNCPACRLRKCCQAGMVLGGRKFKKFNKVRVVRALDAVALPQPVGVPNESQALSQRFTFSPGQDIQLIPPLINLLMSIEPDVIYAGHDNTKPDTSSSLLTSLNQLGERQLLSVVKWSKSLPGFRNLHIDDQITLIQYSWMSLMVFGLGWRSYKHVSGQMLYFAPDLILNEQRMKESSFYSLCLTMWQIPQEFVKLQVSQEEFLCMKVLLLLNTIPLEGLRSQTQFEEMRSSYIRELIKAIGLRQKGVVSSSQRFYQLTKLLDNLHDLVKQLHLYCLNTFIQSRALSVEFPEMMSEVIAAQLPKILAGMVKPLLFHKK

In the case of `C[C@]12CCC(=O)C=C1CC[C@@H]1[C@@H]2[C@@H](O)C[C@@]2(C)[C@H]1CC[C@]2(O)C(=O)CO` [cortisol], in series [1], the “affinity of MRs for cortisol relative to GRs for glucocorticoids” value is “ten-fold”.

For `CC#C[C@]1(O)CC[C@H]2[C@@H]3CCC4=CC(=O)CCC4=C3[C@@H](c3ccc(OCCN(C)C)cc3)C[C@@]21C` [RU009, 11β-(4-dimethylaminoethoxyphenyl)-17α-propynyl-17β-hydroxy-4,9-estradien-3-one], the “antagonist of the glucocorticoid (GR) receptor” value in series [2] is “GR antagonist effects”.

On to `CC#C[C@]1(O)CC[C@H]2[C@@H]3CCC4=CC(=O)CCC4=C3[C@@H](c3ccc(N(C)C)cc3)C[C@@]21C` [Mifepristone, (11β,17β) 11 [4 (dimethylamino)phenyl]-17 hydroxy-17 (1 propynyl)estra-4,9 dien-3 one], for which the “daily dose excreted in the urine” value in series [3] was “less than 0.5%”. Besides, the “antagonist of the glucocorticoid (GR) receptor” value in series [2] is “powerful antagonist”. The “antagonist of the progesterone receptor” value at progesterone receptor was “powerful antagonist”.
